Measurements: patent US20050090396A1, “Herbicides based on substituted carboxylic acid anilides” (priority 2001, published 2005)

How the values were obtained:
[1] = test system: Hordeum vulgare (winter barley); experiment: Post-emergence test/greenhouse, damage to winter barley (HORVW); type: in vivo
Method: (§1) Post-Emergence Test/Greenhouse
Test plants are grown under controlled conditions (temperature and light).
(§2) Following the spray application, the plant containers are kept in the greenhouse under constant light and temperature conditions.
(§3) After five days (5d) and/or three weeks (21d), the degree of damage to the plants is rated in % damage in comparison to the development of the untreated control.

[2] = test system: Triticum aestivum (winter wheat); experiment: Post-emergence test/greenhouse, damage to winter wheat (TRZAW); type: in vivo
Method: as §1
Test plants are grown under controlled conditions (temperature and light). Once the plants have reached a height of 5 to 15 cm, the test compound or the combination of test compounds is applied by spraying such that the particular amounts of active compound desired are applied per unit area. The concentration of the spray liquor is chosen so that the particular amounts of active compound desired are applied in 500 litres of water/ha.
as §2, §3
• 0%=no effect (like untreated control) • 100%=total destruction.
Unless indicated otherwise, the tests were carried out in the presence of 0.5% Renex 36. • a.i. denotes “active ingredient” (active compound). • HORVW denotes Hordeum vulgare (winter barley).
TRZAW denotes Triticum aestivum (winter wheat).

[3] = 50 g of ai/ha, without addition of Renex 36

CCS(=O)(=O)N(C(=O)COc1ccc(Cl)cc1Cl)c1cc(-n2c(=O)cc(C(F)(F)F)n(C)c2=O)c(F)cc1C#N [Ex. I-1]
degree of damage to the plants, HORVW 21d ([1]; 30 g of ai/ha, 0.5% Renex 36): 20% | degree of damage to the plants, HORVW 21d ([1]; 60 g of ai/ha, 0.5% Renex 36): 40%

CCS(=O)(=O)N(C(=O)CCc1ccc(Cl)c(Cl)c1)c1cc(-n2c(=O)cc(C(F)(F)F)n(C)c2=O)c(F)cc1C#N [Ex. I-2]
degree of damage to the plants, HORVW 5d ([1]; 30 g of ai/ha, 0.5% Renex 36): 40% | degree of damage to the plants, HORVW 5d ([1]; 60 g of ai/ha, 0.5% Renex 36): 60%

CCS(=O)(=O)N(C(=O)CCc1ccc(Cl)c(Cl)c1)c1cc(-n2ncc(=O)n(C)c2=O)c(F)cc1C#N [Ex. I-14]
degree of damage to the plants, TRZAW 5d ([2]; 60 g of ai/ha, 0.5% Renex 36): 20% | degree of damage to the plants, HORVW 5d ([1]; 60 g of ai/ha, 0.5% Renex 36): 30%

CCS(=O)(=O)N(C(=O)CCc1cccc(OC)c1)c1cc(-n2c(=O)cc(C(F)(F)F)n(C)c2=O)c(F)cc1C#N [Ex. I-24]
degree of damage to the plants, HORVW 5d ([1]; 15 g of ai/ha, 0.5% Renex 36): 40% | degree of damage to the plants, HORVW 5d ([1]; 30 g of ai/ha, 0.5% Renex 36): 60% | degree of damage to the plants, HORVW 5d ([1]; 60 g of ai/ha, 0.5% Renex 36): 70%

Cn1c(C(F)(F)F)cc(=O)n(-c2cc(N(C(=O)CCc3ccc(F)c(F)c3)S(C)(=O)=O)c(C#N)cc2F)c1=O [Ex. I-26]
degree of damage to the plants, TRZAW 21d ([2]; 30 g of ai/ha, 0.5% Renex 36): 20% | degree of damage to the plants, TRZAW 21d ([2]; 60 g of ai/ha, 0.5% Renex 36): 30% | degree of damage to the plants, HORVW 21d ([1]; 15 g of ai/ha, 0.5% Renex 36): 10% | degree of damage to the plants, HORVW 21d ([1]; 30 g of ai/ha, 0.5% Renex 36): 20% | degree of damage to the plants, HORVW 21d ([1]; 60 g of ai/ha, 0.5% Renex 36): 40%

CCS(=O)(=O)N(C(=O)C(C)=Cc1ccccc1)c1cc(-n2c(=O)cc(C(F)(F)F)n(C)c2=O)c(F)cc1C#N [Ex. I-29]
degree of damage to the plants, HORVW 5d ([1]; 15 g of ai/ha, 0.5% Renex 36): 10%

CCS(=O)(=O)N(C(=O)C=Cc1ccccc1Cl)c1cc(-n2c(=O)cc(C(F)(F)F)n(C)c2=O)c(F)cc1C#N [Ex. I-31]
degree of damage to the plants, TRZAW 5d ([2]; 30 g of ai/ha, 0.5% Renex 36): 20% | degree of damage to the plants, TRZAW 5d ([2]; 60 g of ai/ha, 0.5% Renex 36): 20% | degree of damage to the plants, HORVW 5d ([1]; 15 g of ai/ha, 0.5% Renex 36): 30% | degree of damage to the plants, HORVW 5d ([1]; 30 g of ai/ha, 0.5% Renex 36): 40% | degree of damage to the plants, HORVW 5d ([1]; 60 g of ai/ha, 0.5% Renex 36): 50%

Cn1c(C(F)(F)F)cc(=O)n(-c2cc(N(C(=O)C=Cc3ccccc3Cl)S(C)(=O)=O)c(C#N)cc2F)c1=O [Ex. I-32]
degree of damage to the plants, HORVW 5d ([1]; 30 g of ai/ha, 0.5% Renex 36): 25% | degree of damage to the plants, HORVW 5d ([1]; 60 g of ai/ha, 0.5% Renex 36): 40%

CCS(=O)(=O)N(C(=O)CCc1cccc(Cl)c1)c1cc(-n2c(=O)cc(C(F)(F)F)n(C)c2=O)c(F)cc1C#N [Ex. I-33]
degree of damage to the plants, TRZAW 5d ([2]; 60 g of ai/ha, 0.5% Renex 36): 25% | degree of damage to the plants, TRZAW 21d ([2]; 30 g of ai/ha, 0.5% Renex 36): 10% | degree of damage to the plants, TRZAW 21d ([2]; 60 g of ai/ha, 0.5% Renex 36): 15% | degree of damage to the plants, HORVW 5d ([1]; 60 g of ai/ha, 0.5% Renex 36): 40% | degree of damage to the plants, HORVW 21d ([1]; 30 g of ai/ha, 0.5% Renex 36): 15% | degree of damage to the plants, HORVW 21d ([1]; 60 g of ai/ha, 0.5% Renex 36): 20%

CCS(=O)(=O)N(C(=O)CC(C)c1ccccc1)c1cc(-n2ncc(=O)n(C)c2=O)c(F)cc1C#N (stereo not shown) [Ex. I-40]
degree of damage to the plants, TRZAW 5d ([2]; 60 g of ai/ha, 0.5% Renex 36): 20% | degree of damage to the plants, HORVW 5d ([1]; 60 g of ai/ha, 0.5% Renex 36): 30% | degree of damage to the plants, HORVW 21d ([1]; 60 g of ai/ha, 0.5% Renex 36): 20%

CCS(=O)(=O)N(C(=O)CCc1cccc(OC)c1)c1cc(-n2ncc(=O)n(C)c2=O)c(F)cc1C#N [Ex. I-41]
degree of damage to the plants, HORVW 5d ([1]; 15 g of ai/ha, 0.5% Renex 36): 20% | degree of damage to the plants, HORVW 5d ([1]; 30 g of ai/ha, 0.5% Renex 36): 25%

CCS(=O)(=O)N(C(=O)CCc1ccc(F)c(F)c1)c1cc(-n2ncc(=O)n(C)c2=O)c(F)cc1C#N [Ex. I-42]
degree of damage to the plants, HORVW 5d ([1]; 15 g of ai/ha, 0.5% Renex 36): 15% | degree of damage to the plants, HORVW 5d ([1]; 30 g of ai/ha, 0.5% Renex 36): 20% | degree of damage to the plants, HORVW 5d ([1]; 60 g of ai/ha, 0.5% Renex 36): 30% | degree of damage to the plants, HORVW 21d ([1]; 60 g of ai/ha, 0.5% Renex 36): 20%

CCS(=O)(=O)N(C(=O)CCc1ccc(F)cc1F)c1cc(-n2ncc(=O)n(C)c2=O)c(F)cc1C#N [Ex. I-43]
degree of damage to the plants, TRZAW 5d ([2]; 15 g of ai/ha, 0.5% Renex 36): 15% | degree of damage to the plants, TRZAW 5d ([2]; 30 g of ai/ha, 0.5% Renex 36): 15% | degree of damage to the plants, HORVW 21d ([1]; 15 g of ai/ha, without addition of Renex 36): 10%

CCCCCC(C)OC(=O)COc1ccc(Cl)c2cccnc12 (stereo not shown) [cloquintocet-mexyl, 1-methylhexyl 5-chloroquinolin-8-oxyacetate, reference compound]
degree of damage to the plants, TRZAW 5d ([2]; 50 g of ai/ha, 0.5% Renex 36): 0% | degree of damage to the plants, TRZAW 5d [2, 3]: 0% | degree of damage to the plants, TRZAW 21d ([2]; 50 g of ai/ha, 0.5% Renex 36): 0% | degree of damage to the plants, HORVW 5d ([1]; 50 g of ai/ha, 0.5% Renex 36): 0% | degree of damage to the plants, HORVW 5d [1, 3]: 0% | degree of damage to the plants, HORVW 21d ([1]; 50 g of ai/ha, 0.5% Renex 36): 0% | degree of damage to the plants, HORVW 21d [1, 3]: 0%

CCOC(=O)C1=NOC(c2ccccc2)(c2ccccc2)C1 [isoxadifen, ethyl 4,5-dihydro-5,5-diphenyl-3-isoxazolecarboxylate, reference compound]
degree of damage to the plants, TRZAW 5d ([2]; 50 g of ai/ha, 0.5% Renex 36): 0% | degree of damage to the plants, TRZAW 5d [2, 3]: 0% | degree of damage to the plants, TRZAW 21d ([2]; 50 g of ai/ha, 0.5% Renex 36): 0% | degree of damage to the plants, HORVW 5d ([1]; 50 g of ai/ha, 0.5% Renex 36): 0% | degree of damage to the plants, HORVW 5d [1, 3]: 0% | degree of damage to the plants, HORVW 21d ([1]; 50 g of ai/ha, 0.5% Renex 36): 0% | degree of damage to the plants, HORVW 21d [1, 3]: 0%

CCOC(=O)C1=NN(c2ccc(Cl)cc2Cl)C(C)(C(=O)OCC)C1 (stereo not shown) [mefenpyr-diethyl, diethyl 1-(2,4-dichlorophenyl)-4,5-dihydro-5-methyl-1H-pyrazole-3,5-dicarboxylate, reference compound]
degree of damage to the plants, TRZAW 5d ([2]; 50 g of ai/ha, 0.5% Renex 36): 0% | degree of damage to the plants, TRZAW 21d ([2]; 50 g of ai/ha, 0.5% Renex 36): 0% | degree of damage to the plants, HORVW 5d ([1]; 50 g of ai/ha, 0.5% Renex 36): 0% | degree of damage to the plants, HORVW 21d ([1]; 50 g of ai/ha, 0.5% Renex 36): 0%
